Source: patent US8951997B2, “Substituted isoquinoline derivative” (D. Western Therapeutics Institute, Inc., priority 2009, dated 2015)
Counter-ions that a name gives are not always drawn.

Experiments:
[1] = test system: rabbits (New Zealand White); test: Ocular hypotensive effect in rabbits; type: in vivo, rabbit; conditions: Oryctolagus cuniculus, topical, 0.04 mL dropped to one eye, vehicle to contralateral eye, test compound solution concentration 10 (W/V), read-out: Maximum ocular hypotensive rate
Experimental: The compound of the present invention was administered to rabbits (New Zealand White, sex: male, 3 to 7 per group) and evaluated for its ocular hypotensive effect.
Each test compound was dissolved in a vehicle (1.04 g of sodium dihydrogen phosphate dihydrate and 0.5 g of sodium chloride dissolved in purified water and then adjusted to pH 7.0 with sodium hydroxide to make the total amount to 100 mL) to prepare a test compound solution with a concentration of 10 (W/V).
The intraocular pressures of the rabbits were measured using Tiolat TonoVet handheld tonometer immediately before administration of test compound. The test compound solution and the vehicle were dropped at a volume of 0.04 mL to one eye and the contralateral eye, respectively, and the intraocular pressures were measured over time in the same way as above. The rate of the intraocular pressure of the eye receiving the test compound solution to that of the eye receiving the vehicle was calculated as an ocular hypotensive rate.

[2] = test system: NG108-15 cells; test: Neurite outgrowth promoting effect; type: cell-based; conditions: NG108-15 cells, 10, 3, 1, or 0.3 μmol/L, 24 hours, compared with cells cultured in the absence of the compound
Experimental: To examine the usefulness of the compound of the present invention as a therapeutic agent for neurodegenerative diseases, NG108-15 cells frequently used as a model of neurons were cultured in the presence of the compound of the present invention, which was then evaluated for its neurite outgrowth promoting effect. Examples 15 and 49 were used as test compounds.
Each test compound was dissolved in dimethyl sulfoxide and diluted to prepare a test compound solution with a predetermined concentration.
The NG108-15 cells (obtained from ATCC) were cultured in a Dulbecco's modified eagle's medium containing 5% fetal bovine serum and 1×HAT (hypoxanthine, aminopterin, and thymidine). The cells were inoculated at 12,000 cells/well to a 24-well plate and statically cultured at 37° C. for 12 hours in an environment of 5% CO2 and 95% air. Then, each test compound was added at a final concentration of 10, 3, 1, or 0.3 μmol/L. 24 hours later, the degree of neurite outgrowth was observed under an inverted microscope.

[3] = test system: rats (SD); test: Blood pressure lowering effect in rats; type: in vivo, rat; conditions: male, intraperitoneal, 10 mg/kg
Experimental: The compound of the present invention was intraperitoneally administered to rats (SD, sex: male, 6 rats per group) and evaluated for its blood pressure lowering effect. Example 18 was used as a test compound.
The test compound was dissolved in saline and diluted to prepare a test compound solution with a predetermined concentration.
The test drug was intraperitoneally administered at a dose of 10 mg/kg to the rats (6 rats per group), and their blood pressures and pulse rates were measured over time using Softron Indirect Blood Pressure Meter BP-98A.

[4] = test system: rabbits (New Zealand White); test: Ocular hypotensive effect in rabbits; type: in vivo, rabbit; conditions: Oryctolagus cuniculus, topical, 0.04 mL dropped to one eye, vehicle to contralateral eye, test compound concentration of 2%, read-out: Maximum ocular hypotensive rate
[5] = test system: spontaneously hypertensive rats (SHR/Izm); test: Blood pressure lowering effect in spontaneously hypertensive rats; type: in vivo, rat; conditions: male, intraperitoneal
Experimental: The compound of the present invention was intraperitoneally administered to spontaneously hypertensive rats (SHR/Izm, sex: male, 4 to 6 rats per group) and evaluated for its blood pressure lowering effect. Examples 32, 34, and 35 were used as test compounds.
Each test compound was dissolved in saline and diluted to prepare a test compound solution with a predetermined concentration.
The test drug was intraperitoneally administered at a dose of 10 mg/kg (except for 30 mg/kg for Example 34) to the animals (4 to 6 rats per group), and their blood pressures and pulse rates were measured over time using Softron Indirect Blood Pressure Meter BP-98A.

[6] = test system: mouse model of spinal cord injury; test: Motor function recovering effect on a spinal cord injury model of the mouse; type: in vivo; conditions: C57BL/6Cr mice, 3 mg/kg intraperitoneal once a day for 7 days, day 14 after operation, score 0 normal to 72 most serious, saline group 41
Experimental: To examine the usefulness of the compound of the present invention as a therapeutic agent for spinal cord injury, the mouse model of spinal cord injury was prepared and a motor function recovering effect after spinal cord injury was investigated.
Example 14 as a test compound was dissolved in saline and diluted to prepare a test compound solution with a predetermined concentration.
C57BL/6Cr mice (female, body weight: around 19 g, 6 to 8 […] per group) were anesthetized by halothane inhalation. The spinal cord at the level of the eighth thoracic vertebrae was compressed with 20 g of weight for 5 minutes to prepare a spinal cord injury model, according to the method described in the document (Acta Neuropathol. 100, 13-22 (2000)). The test compound was intraperitoneally administered at a dose of 3 mg/kg once a day for 7 consecutive days from the surgery day. After 1, 4, 7, 10, and 14 days from the preparation of the spinal cord injury model, the severity of neurological dysfunction was scored by a partial modification of the performance score described in J. Neurosurg. 93 (Spine 1), 94-101(2000). The details of the behavioral score are as follows:
Open field locomotion (rated 0 to 42)
Toe spread (rated 0 to 5)
Contact place response (rated 0 to 5)
Withdrawal reflexes (rated 0 to 5 for each reflex to extension, pain, and pressure stimulations)
Righting reflex (rated 0 to 5) […]

SMILES: C[C@H]1CNCCCN1S(=O)(=O)c1ccc2cnccc2c1Br [Example 15, (S)-5-bromo-6-(2-methyl-1,4-diazepan-1-ylsulfonyl)isoquinoline dihydrochloride]
- inhibition in vivo at 10 % [1]: ≥ 15%
- degree of neurite outgrowth [2]: remarkable neurite outgrowth

SMILES: C[C@@H]1CNCCCN1S(=O)(=O)c1ccc2cnccc2c1 [Example 18, (R)-6-(2-methyl-1,4-diazepan-1-ylsulfonyl)isoquinoline dihydrochloride]
- inhibition in vivo at 10 % [1]: ≥ 15%
- pulse rate [3]: increased
- systolic blood pressure lowered compared with the value before administration ([3]; maximum lowering): ≥ 30%

SMILES: C[C@@H]1CNCCCCN1S(=O)(=O)c1ccc2c(SCCN)nccc2c1 [Example 52, (R)-1-(2-aminoethylthio)-6-(2-methyl-1,4-diazocan-1-ylsulfonyl)isoquinoline trihydrochloride]
- inhibition in vivo at 2 % [4]: ≥ 15%

SMILES: C[C@H]1CCNCCN1S(=O)(=O)c1ccc2cnccc2c1 [Example 32, (S)-6-(7-methyl-1,4-diazepan-1-ylsulfonyl)isoquinoline dihydrochloride]
- inhibition in vivo at 10 % [1]: ≥ 15%
- pulse rate ([5]; 10 mg/kg): increased
- systolic blood pressure lowered compared with the value before administration ([5]; 10 mg/kg): 16%

SMILES: C[C@@H]1CNCCCCN1S(=O)(=O)c1ccc2cnccc2c1 [Example 14, (R)-6-(2-methyl-1,4-diazocan-1-ylsulfonyl)isoquinoline dihydrochloride]
- neurological dysfunction score [6]: 33
- inhibition in vivo at 10 % [1]: ≥ 15%

SMILES: Cc1c(S(=O)(=O)N2CCCNC[C@@H]2C)ccc2cnccc12 [Example 49, (S)-5-methyl-6-(2-methyl-1,4-diazepan-1-ylsulfonyl)isoquinoline]
- inhibition in vivo at 10 % [1]: ≥ 15%
- degree of neurite outgrowth [2]: remarkable neurite outgrowth

SMILES: C[C@@H]1CCNCCN1S(=O)(=O)c1ccc2c(SCCN)nccc2c1 [Example 51, (R)-1-(2-aminoethylthio)-6-(7-methyl-1,4-diazepan-1-ylsulfonyl)isoquinoline trihydrochloride]
- inhibition in vivo at 2 % [4]: ≥ 15%

SMILES: C[C@@H]1CCNCCN1S(=O)(=O)c1ccc2cnccc2c1 [Example 34, (R)-6-(7-methyl-1,4-diazepan-1-ylsulfonyl)isoquinoline dihydrochloride]
- inhibition in vivo at 10 % [1]: ≥ 15%
- pulse rate ([5]; 30 mg/kg): increased

SMILES: C[C@@H]1CCNC[C@@H](C)N1S(=O)(=O)c1ccc2cnccc2c1 [Example 35, (2R,7R)-6-(2,7-dimethyl-1,4-diazepan-1-ylsulfonyl)isoquinoline dihydrochloride]
- inhibition in vivo at 10 % [1]: ≥ 15%
- pulse rate ([5]; 10 mg/kg): increased
